According to ChEMBL document CHEMBL1142222, “A-803467, a potent and selective Nav1.8 sodium channel blocker, attenuates neuropathic and inflammatory pain in the rat” (Proc Natl Acad Sci U S A, 2007):

Assays:
[1] = biological target: Sodium channel protein type 10 subunit alpha (Rattus norvegicus, UniProt Q62968); test: Inhibition of Nav1.8 channel in rat dorsal root ganglion neurons assessed as blockade of TTX-R current by patch clamp method; format: tissue-based
Rattus norvegicus = test: Analgesic activity in ip dosed rat chronic constriction injury model of mechanical allodynia; format: functional

Sequence of Sodium channel protein type 10 subunit alpha (Q62968 whole entry): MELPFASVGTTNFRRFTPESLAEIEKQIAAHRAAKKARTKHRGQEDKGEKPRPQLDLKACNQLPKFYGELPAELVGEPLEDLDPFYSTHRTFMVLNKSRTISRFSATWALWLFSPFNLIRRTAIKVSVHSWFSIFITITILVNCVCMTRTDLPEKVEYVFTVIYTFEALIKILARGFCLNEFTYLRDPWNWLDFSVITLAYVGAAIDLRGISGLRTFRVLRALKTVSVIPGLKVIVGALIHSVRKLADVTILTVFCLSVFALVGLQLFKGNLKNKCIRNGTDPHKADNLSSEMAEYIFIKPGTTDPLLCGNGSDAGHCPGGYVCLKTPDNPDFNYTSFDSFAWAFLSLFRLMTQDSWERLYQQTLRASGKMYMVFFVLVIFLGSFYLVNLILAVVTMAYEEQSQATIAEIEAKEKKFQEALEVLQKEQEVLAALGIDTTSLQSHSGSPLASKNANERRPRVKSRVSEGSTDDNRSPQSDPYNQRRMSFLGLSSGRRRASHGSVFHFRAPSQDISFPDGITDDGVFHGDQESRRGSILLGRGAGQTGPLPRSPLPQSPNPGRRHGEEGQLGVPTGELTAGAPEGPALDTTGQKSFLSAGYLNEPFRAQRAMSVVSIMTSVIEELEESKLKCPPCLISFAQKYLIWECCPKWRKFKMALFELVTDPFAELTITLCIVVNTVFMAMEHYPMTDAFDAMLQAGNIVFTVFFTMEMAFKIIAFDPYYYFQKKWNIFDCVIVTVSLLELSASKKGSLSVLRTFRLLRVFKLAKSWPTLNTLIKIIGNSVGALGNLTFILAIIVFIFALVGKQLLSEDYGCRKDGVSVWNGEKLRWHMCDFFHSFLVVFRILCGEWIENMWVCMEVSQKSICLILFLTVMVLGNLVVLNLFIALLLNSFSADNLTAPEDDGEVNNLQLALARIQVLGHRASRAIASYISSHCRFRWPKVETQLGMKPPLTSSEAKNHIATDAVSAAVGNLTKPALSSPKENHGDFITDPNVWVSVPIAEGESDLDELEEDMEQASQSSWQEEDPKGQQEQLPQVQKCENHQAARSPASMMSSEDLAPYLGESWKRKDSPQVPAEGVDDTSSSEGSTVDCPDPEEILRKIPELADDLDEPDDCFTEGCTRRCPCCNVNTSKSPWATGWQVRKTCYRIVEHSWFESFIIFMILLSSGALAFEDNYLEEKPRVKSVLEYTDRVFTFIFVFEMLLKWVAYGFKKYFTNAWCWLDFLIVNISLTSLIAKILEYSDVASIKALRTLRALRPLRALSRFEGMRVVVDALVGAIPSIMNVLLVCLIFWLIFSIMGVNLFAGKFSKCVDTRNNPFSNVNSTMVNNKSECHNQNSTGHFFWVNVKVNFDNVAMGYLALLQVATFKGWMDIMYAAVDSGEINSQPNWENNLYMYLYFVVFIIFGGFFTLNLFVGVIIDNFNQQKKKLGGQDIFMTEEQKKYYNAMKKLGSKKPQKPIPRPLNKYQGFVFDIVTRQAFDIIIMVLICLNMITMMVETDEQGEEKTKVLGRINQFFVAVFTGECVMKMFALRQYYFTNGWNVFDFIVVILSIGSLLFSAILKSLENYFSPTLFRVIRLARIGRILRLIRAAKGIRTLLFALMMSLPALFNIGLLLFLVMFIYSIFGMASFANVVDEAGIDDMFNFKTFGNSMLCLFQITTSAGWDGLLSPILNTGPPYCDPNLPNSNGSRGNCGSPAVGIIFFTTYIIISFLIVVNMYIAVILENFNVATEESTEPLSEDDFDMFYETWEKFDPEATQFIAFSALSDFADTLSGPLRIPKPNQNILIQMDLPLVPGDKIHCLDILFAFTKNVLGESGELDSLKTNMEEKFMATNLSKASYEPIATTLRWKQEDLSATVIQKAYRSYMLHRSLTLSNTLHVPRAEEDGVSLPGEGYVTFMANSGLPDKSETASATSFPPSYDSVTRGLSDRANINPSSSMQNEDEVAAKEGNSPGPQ

SMILES | IC50 [1] | ED50 (Rattus norvegicus)
Cc1cccc(C)c1OCC(C)N (stereo not drawn) [MEXILETINE] | > 30 µM | 
Nc1nnc(-c2cccc(Cl)c2Cl)c(N)n1 [LAMOTRIGINE] |  | 20 mg/kg
NCC1(CC(=O)O)CCCCC1 [GABAPENTIN] |  | 40 mg/kg
